From patent US9034891B2, “Bicyclic heterocyclic spiro compounds” (ISRAEL INSTITUTE FOR BIOLOGICAL RESEARCH, priority 2009, dated 2015)

What was measured:
5HT2B Receptor = 5HT2B Receptor (Homo sapiens, UniProt P41595); assay: Functional study, agonist; conditions: 100 μM
Source text: (§1) It was specifically designed to provide information not only on potential limitations of drug candidates, but also for off-target activity identification. […] In a further extension of this study, functional studies were done on most of these receptors.

Mu Receptor = Mu Receptor (Homo sapiens, UniProt P35372); assay: Functional study, agonist
Source text: as §1

M1 mAChR [1] = target: T1, M1 mAChR (Homo sapiens, UniProt P11229); assay: Intracellular Ca2+ mobilization (Fluo-4 NW) in cells stably transfected with M1 mAChR; format: cell-based; design: expressed in transfected cells; conditions: 100 μM; mobilization of intracellular Ca ions
T1 sequence (P11229 1-460): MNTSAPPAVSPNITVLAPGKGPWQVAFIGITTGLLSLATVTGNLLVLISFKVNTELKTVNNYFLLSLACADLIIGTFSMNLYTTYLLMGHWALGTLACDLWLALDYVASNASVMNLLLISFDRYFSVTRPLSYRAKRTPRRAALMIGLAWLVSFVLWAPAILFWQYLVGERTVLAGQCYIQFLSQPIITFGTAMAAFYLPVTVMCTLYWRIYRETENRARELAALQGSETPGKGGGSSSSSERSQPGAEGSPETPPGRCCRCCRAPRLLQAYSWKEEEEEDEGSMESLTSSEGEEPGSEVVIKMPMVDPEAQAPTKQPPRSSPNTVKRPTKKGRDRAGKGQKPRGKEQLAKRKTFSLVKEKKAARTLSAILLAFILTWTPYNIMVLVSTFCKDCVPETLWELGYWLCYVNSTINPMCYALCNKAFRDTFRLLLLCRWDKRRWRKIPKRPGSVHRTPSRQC
Source text: On the day of experiment, cells were fully confluent.
To evaluate selectivity for a subtype of mAChR, in particular the M1 mAChR vs. M3 and MS mAChR, the assays were calibrated using ligands that have a combined activity, e.g. M1 agonistic and M3 antagonistic or M1 agonistic and MS antagonistic profiles, respectively. This can eliminate effects due to different receptor reserves in cell-based assays.

[2] = Description: On the day of dosing, careful clinical examinations were carried out and recorded periodically during the first 4 hours post-dosing and at the end of the respective working day. Thereafter, animals were inspected and clinical signs were recorded at least once daily throughout the entire 14-day observation period. Observations included changes in skin, fur, eyes, mucous membranes, occurrence of secretions and excretions (e.g. diarrhea) and autonomic activity (e.g. lacrimation, salivation, piloerection, pupil size, unusual respiratory pattern). Changes in gait, posture and response to handling, as well as the presence of bizarre behavior, tremors, convulsion, sleep and coma were also examined. […] In view of the sequential method applied in the current study and in order to standardize, as much as possible, all body weight and body weight gain values, the respective percentage change in body weight vs. the day of dosing was calculated for each animal and group. […] All animals were subjected to a full detailed necropsy and gross pathological examination following the scheduled termination. At necropsy, all animals were subjected to thorough examination, including the external surface of the body, all orifices, cranial, thoracic and abdominal cavities and their contents.
GSK-3β = assay: Phospho-GSK3β (Ser 9) western blot in PC12 cells transfected with M1 mAChR, +Aβ25-35; format: cell-based, rat; conditions: 100 μM-1 nM; Aβ25-35 20 μM
Source text: Anti-GSK-3 (Santa Cruz Biotechnology) is a phosphorylation-independent monoclonal antibody reactive with both GSK-3α and GSK3β. In the same experiments the status of tau protein phosphorylation was studied using mouse anti Tau-1 monoclonal antibody (Chemicon, CAT number MAB3420), which recognizes an unphosphorylated epitope of tau.

PC12M1 cells = assay: Mitochondrial apoptosis pathway, Bax and Bcl-2 immunoreactivity in PC12M1 cells; design: Emax: dose or concentration left out as unconfirmed
Description: These cells were partially differentiated (2-3 days), as observed under microscope. […] The pellet (rich mitochondrial fraction) was re-suspended with 200 μl Ripa buffer and lysed by rapid passage through a syringe needle (23G) for five to six times. The lysate was then used for further evaluation.
Bands were probed using the Rabbit Bax antibody (1:1000, Cell signaling, Cat. No. 2772) and Rabbit Bcl-2 antibody (1:1000, Cell signaling, Cat. No. 2870) followed by anti rabbit IgG (H&L) HRP (1:5,000, Jackson Immuno Research, 111-035-144).

M1 mAChR [3] = target: T1, M1 mAChR; assay: High-throughput profiling, binding at 10 μM; design: expressed in transfected cells
Source text: as §1

rat M1 mAChR = target: T2, rat M1 mAChR (Rattus norvegicus, UniProt P08482); assay: αAPPs secretion in PC12 cells stably transfected with rat M1 mAChR; format: cell-based; conditions: 0.1 nM to 1 μM, not observed in untransfected PC12
T2 construct: expressed in transfected cells; host or cells: rat pheochromocytoma PC12 cells
Description: α-APPs Secretion studies following incubation with the tested compounds were performed as described in Haring, et al. J. Neurochem., 1998, 71:2094-103. […] A day later, cells were washed twice with serum free media, and treated with the test compound at various concentrations ranging from 0.1 nM to 100 μM. […] After 1 hour the conditioned medium was collected to cold Eppendorf tubes, which included a protease inhibitor cocktail (0.1 mM phenylmethylsulphonyl fluoride (PMSF); 5 μg/ml leupeptin; 5 μg/ml pepstatin and 5 units/ml aprotinin) for determining αAPPs release. The protein content of each sample was concentrated using Centricon tubes (Amicon, Beverly, Mass.). […] CHO cells double transfected with human APP695 and M1 mAChR APPs bands were probed using anti-amyloid beta protein (1:1000, monoclonal 6E10 antibody, MAB1560, Chemicon) and peroxidase-linked rabbit anti mouse IgG (1:5,000; Jackson Immuno Research, PA). PC12 cells stably transfected with M1 mAChR APPs bands were probed using the anti-Alzheimer precursor protein A4 (1:4,000; monoclonal 22C11 antibody, Boehringer Mannheim) and the peroxidase-linked rabbit anti mouse IgG (1:20,000; Jackson Immuno Research, PA). […] Quantitative determination of the total APPs bands was performed by Scion Image program (NIH, Bethesda, USA). […]

M1 mAChR [4] = target: T1, M1 mAChR; assay: αAPPs secretion in CHO cells double transfected with human APP695 and human M1 mAChR; format: cell-based
Description: α-APPs Secretion studies following incubation with the tested compounds were performed as described in Haring, et al. J. Neurochem., 1998, 71:2094-103. […] A day later, cells were washed twice with serum free media, and treated with the test compound at various concentrations ranging from 0.1 nM to 100 μM. […] After 1 hour the conditioned medium was collected to cold Eppendorf tubes, which included a protease inhibitor cocktail (0.1 mM phenylmethylsulphonyl fluoride (PMSF); 5 μg/ml leupeptin; 5 μg/ml pepstatin and 5 units/ml aprotinin) for determining αAPPs release. The protein content of each sample was concentrated using Centricon tubes (Amicon, Beverly, Mass.). […] CHO cells double transfected with human APP695 and M1 mAChR APPs bands were probed using anti-amyloid beta protein (1:1000, monoclonal 6E10 antibody, MAB1560, Chemicon) and peroxidase-linked rabbit anti mouse IgG (1:5,000; Jackson Immuno Research, PA). PC12 cells stably transfected with M1 mAChR APPs bands were probed using the anti-Alzheimer precursor protein A4 (1:4,000; monoclonal 22C11 antibody, Boehringer Mannheim) and the peroxidase-linked rabbit anti mouse IgG (1:20,000; Jackson Immuno Research, PA). Following extensive washout, the membranes were treated with Western Lightning Chemiluminescence Reagent Plus (PerkinElmer Life Sciences, MA) followed by exposure to SuperRX film (Fuji Medical X-ray film, Tokyo, Japan). Quantitative determination of the total APPs bands was performed by Scion Image program (NIH, Bethesda, USA). Samples of control and CCh were assayed in parallel and thus enabled compilation of data from separate experiments.

α7 nicotinic receptor = α7 nicotinic receptor (Homo sapiens, UniProt P36544); assay: Binding to α7 nicotinic receptor; conditions: 0.1 nM-10 μM
Source text: as §1

Sequence of Mu Receptor (P35372 whole entry): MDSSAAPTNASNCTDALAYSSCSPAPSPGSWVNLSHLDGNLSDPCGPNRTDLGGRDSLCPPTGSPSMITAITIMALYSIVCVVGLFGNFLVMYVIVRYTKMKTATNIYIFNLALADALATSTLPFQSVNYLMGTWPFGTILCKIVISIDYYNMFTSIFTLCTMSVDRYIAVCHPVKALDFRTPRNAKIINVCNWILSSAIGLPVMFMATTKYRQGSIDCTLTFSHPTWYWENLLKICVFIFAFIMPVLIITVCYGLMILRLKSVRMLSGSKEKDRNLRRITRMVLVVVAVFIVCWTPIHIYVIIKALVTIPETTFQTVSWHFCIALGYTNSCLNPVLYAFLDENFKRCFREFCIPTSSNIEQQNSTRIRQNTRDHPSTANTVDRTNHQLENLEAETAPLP
Sequence of 5HT2B Receptor (P41595 whole entry): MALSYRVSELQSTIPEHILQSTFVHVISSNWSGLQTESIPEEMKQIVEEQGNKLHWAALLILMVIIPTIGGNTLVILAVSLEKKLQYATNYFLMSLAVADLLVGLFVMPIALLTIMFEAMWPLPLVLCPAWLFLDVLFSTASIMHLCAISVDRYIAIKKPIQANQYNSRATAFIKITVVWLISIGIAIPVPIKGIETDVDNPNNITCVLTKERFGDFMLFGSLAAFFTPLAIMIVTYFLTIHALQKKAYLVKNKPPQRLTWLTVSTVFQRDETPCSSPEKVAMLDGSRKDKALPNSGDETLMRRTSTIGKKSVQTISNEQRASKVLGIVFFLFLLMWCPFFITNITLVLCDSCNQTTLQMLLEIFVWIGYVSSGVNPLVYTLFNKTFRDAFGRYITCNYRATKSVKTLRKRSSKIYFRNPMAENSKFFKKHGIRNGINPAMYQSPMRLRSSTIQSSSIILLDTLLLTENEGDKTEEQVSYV
Sequence of α7 nicotinic receptor (P36544 23-502): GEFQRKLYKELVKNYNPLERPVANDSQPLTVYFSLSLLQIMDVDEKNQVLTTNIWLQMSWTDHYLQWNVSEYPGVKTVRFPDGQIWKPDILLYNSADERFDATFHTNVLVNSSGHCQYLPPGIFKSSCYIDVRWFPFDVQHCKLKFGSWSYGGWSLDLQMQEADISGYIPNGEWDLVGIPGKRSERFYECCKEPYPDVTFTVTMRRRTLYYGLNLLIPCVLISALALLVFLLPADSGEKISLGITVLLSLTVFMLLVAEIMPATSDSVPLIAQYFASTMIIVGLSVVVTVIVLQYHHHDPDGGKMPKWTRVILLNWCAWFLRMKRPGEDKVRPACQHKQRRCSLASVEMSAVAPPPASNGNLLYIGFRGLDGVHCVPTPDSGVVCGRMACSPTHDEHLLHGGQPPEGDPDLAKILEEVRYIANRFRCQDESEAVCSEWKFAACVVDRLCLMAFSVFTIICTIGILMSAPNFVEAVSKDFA
T2 sequence (P08482 whole entry): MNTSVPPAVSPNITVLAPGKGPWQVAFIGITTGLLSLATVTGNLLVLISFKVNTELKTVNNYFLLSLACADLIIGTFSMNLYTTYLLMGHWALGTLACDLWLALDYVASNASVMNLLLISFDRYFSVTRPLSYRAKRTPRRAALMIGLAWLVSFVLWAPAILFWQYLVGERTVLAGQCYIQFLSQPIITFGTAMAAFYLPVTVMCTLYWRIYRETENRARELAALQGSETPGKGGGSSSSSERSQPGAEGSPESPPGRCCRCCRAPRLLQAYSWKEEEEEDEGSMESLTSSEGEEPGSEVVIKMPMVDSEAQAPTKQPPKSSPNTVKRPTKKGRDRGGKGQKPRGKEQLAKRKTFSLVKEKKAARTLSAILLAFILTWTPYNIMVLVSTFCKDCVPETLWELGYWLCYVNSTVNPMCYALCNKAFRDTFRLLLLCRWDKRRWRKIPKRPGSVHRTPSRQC

## C[C@@H]1SC2(CCN(C)CC2)CN1C(=O)CCc1c[nH]c2ccccc12 (single isomer, unassigned) [AF710B]
5HT2B Receptor
  partial agonist efficacy on 5HT2B receptor: 17%
Mu Receptor
  EC50: 13 µM
M1 mAChR [1]
  M1 agonist at 100 μM vs. carbachol (full muscarinic agonist, 100%): 66%
[2]; 1, 10 and 50 mg/kg, oral gavage, 14-day observation
  mortality: No mortality
[2]; rat, in vivo, po
  gross pathological findings at necropsy: No gross pathological findings
GSK-3β
  overactivation of GSK-3β induced by Aβ25-35: inhibited the overactivation of GSK-3β
PC12M1 cells; PC12M1 cells
  Bax elevation after NGF deprivation: attenuated Bax elevation
PC12M1 cells; PC12M1 cells, Aβ 25-35, 1 nM
  Bcl-2, maximum effect: 164±32% of control
PC12M1 cells; Rattus norvegicus, read-out: Aβ 25-35 induced neurotoxicity expressed as Bax/Bcl2, maximum effect
  Emax: 18%
M1 mAChR [3]
  binding to M1 mAChR: binds
Rat M1 mAChR
  release of αAPPs: enhanced the release of αAPPs
M1 mAChR [4]; CHO cells, 0.1 nM to 1 μM
  release of αAPPs: enhanced the release of αAPPs
M1 mAChR [4]; doubly-transfected CHO cells, AF710B at 0.01 μM, AF710 at 0.1 μM, AF710A at 1 μM
  maximal αAPPs secretion in comparison to untreated control cells: 225%
α7 nicotinic receptor
  binding to α7 nicotinic receptor: does not bind
